The melting point is the temperature, or range, at which the solid turns liquid.

Structures are written as SMILES.

Consider `CC(C)(C)c1cc(C(=O)c2cccs2)cc(CN2CCOCC2)c1O`, for which the melting point was 148 °C.

The molecule `COC(=O)N[C@H](C(=O)NN(Cc1ccc(-c2cncs2)cc1)C[C@H](O)[C@H](Cc1ccccc1)NC(=O)[C@@H](NC(=O)OC)C(C)(C)C)C(C)C` yielded a melting point of 134 to 135 °C.

As for `O=C(CP(=S)(c1ccccc1)c1ccccc1)c1ccccc1`, the melting point fell in the range of 83 to 84 °C.

Take `CCCCCCCCCCCC(=O)c1c[nH]c2cc(C(=O)OC)ccc12`: the melting point lay within 167 to 169 °C.

For `Clc1nc(N2CCOCC2)c2ncnc(Cl)c2n1`, the melting point was 179 to 181 °C.

The molecule `CCOC(=O)C(C#N)=NC(=CN1CCOCC1)CC` had a melting point of 127 to 128 °C.

`CCCCC1(CCCC)CCc2c(OCc3ccc4ccccc4n3)ccc(C)c2C1O` (configuration not stated): the melting point fell in the range of 149 to 151 °C.

`COC(=O)CCCC(C)(C)c1cc(O)c(C(C)(C)C)cc1O` yielded a melting point of 136 to 139 °C.

`CCOC(=O)C(C(=O)OC(c1ccccc1)c1ccccc1)C(=O)c1cc(F)c(OC)nc1Nc1ccc(F)cc1F` (configuration not stated): the melting point was 130 to 131 °C.

The molecule `CC(O)C1CCC2C3CCC4=CC(=O)CCC4(C)C3CCC12C` (configuration not stated) displayed a melting point of 163 to 166 °C.

Molecule `CC(O)[C@@H](Cc1ccccc1)NC(=O)OC(C)(C)C` (some centres not stated) displayed a melting point of 127 °C.

Take `CC1N=C(c2ccccc2Cl)c2cc([N+](=O)[O-])ccc2NC1=S` (single isomer, unassigned; (+)): the melting point lay within 258 to 260 °C.

Turning to `Cc1c(C(=O)Nc2ccc(OCC(C)(C)C)c(C#N)c2)cnn1C(C)(C)C`, the melting point was 143 to 144 °C.

For `Cn1c2ccccc2c2nc3cccc(CO)c3nc21`, the melting point came out at 201 °C.

For the molecule `Cc1cc(NC(=O)Nc2ccc(N(CCCl)CCCl)cc2)cc(Nc2c3ccccc3nc3ccccc23)c1`, the melting point was in the range of 280 to 285 °C.

For `O=C1Nc2ccccc2C(c2ccccc2F)CC1Br` (configuration not stated), the melting point lay in the range of 208 to 214 °C.

`C=CCOC(=O)c1cccc(C2=Nc3cc(C)c(-c4cccc(CF)c4)cc3NC(=O)C2)c1`: the melting point was in the range of 226 to 228 °C.

In turn, `CCCCSC1(SCCCC)CCC2C3CCC4=CC(=O)C=CC4(C)C3(F)C(O)CC21C` (configuration not stated) displayed a melting point of 160 to 162 °C.

The molecule `Nc1ccc(NC(=O)N2CCc3cc(S(=O)(=O)N4CC(c5ccccc5)NC4=O)ccc32)cc1` (configuration not stated) returned a melting point of 158 to 160 °C.

In turn, `O=C(Nc1ccc(OC(F)(F)F)cc1)N[C@H]1CC[C@H](O)CC1` displayed a melting point of 224 to 225 °C.

For the molecule `CC(=O)NC[C@H]1CN(c2ccc(N3CCC4(CCO4)CC3)c(F)c2)C(=O)O1`, the melting point fell in the range of 164 to 166 °C.

Consider `O=C1CCCc2c(-c3ccncc3)[nH]c(-c3ccccc3)c21`, for which the melting point fell in the range of 259 to 260 °C.

For `Cc1cccc(-c2nc3ccc(O)cc3n2Cc2ccccc2Br)c1`, the melting point turned out to be 218 °C.

On to `O=CC(=Cc1ccccc1)C(C=O)=Cc1ccccc1`, for which the melting point fell in the range of 109 to 110 °C.

`N#CC(c1ccccc1)C1CCN(c2ccc([N+](=O)[O-])cc2)CC1` (configuration not stated) yielded a melting point of 118 °C.

For `CC(C#N)c1cccc2c(-c3ccccc3)onc12` (configuration not stated), the melting point lay within 109 to 112 °C.

Consider `O=C(CN(CCOCc1ccccc1)Cc1ccccc1)Nc1ccc2c3c(nn2CCN(CCOCc2ccccc2)Cc2ccccc2)-c2cc(O)ccc2Oc13`, for which the melting point lay within 106 to 110 °C.

`O=C1c2ccccc2O[C@@H](c2ccccc2)[C@@H]1n1ccnc1` (relative stereo) showed a melting point of 199 to 203 °C.

For the molecule `CCc1nnc2cc(N3CCN(C)CC3)nc(CC)n12`, the melting point lay within 128 to 131 °C.

In turn, `CN=C(NCc1ccccc1)NN=Cc1c(Cl)cccc1Cl` displayed a melting point of 84 to 86 °C.

As for `Cc1nc(Cl)c2c(-c3ccc([N+](=O)[O-])o3)nn(C)c2n1`, the melting point came to 212 °C.

In turn, `N#CC1(c2ccc(NC(=O)c3ccc4c(c3)OCCO4)cc2)CCCC1` returned a melting point of 164 to 167 °C.

On to `Cn1nc(Sc2ccc(C(=O)OCC(C)(C)C)c(Cl)c2)n(C)c1=O`, for which the melting point came to 101 °C.

As for `Cc1nc(Cl)c(C)c(-c2c(C)c(N)c(C)c3nsnc23)n1`, the melting point lay within 105 to 106 °C.

Turning to `COc1ccc(NC(=O)c2cccnc2)c2c1oc1ccccc12`, the melting point was 200 to 203 °C.

For the molecule `COc1ccc([N+](=O)[O-])c(C(C)=O)c1OC`, the melting point was 64 to 66 °C.

`Nc1nc(NCCN2CCN(C(c3ccccc3)c3ccccc3)CC2)nc(-c2cc(Cl)ccc2Cl)n1` showed a melting point of 192 to 193 °C.

As for `O=C(NCCCN1NC=NN1)c1ccccc1[N+](=O)[O-]`, the melting point was in the range of 148 to 150 °C.

On to `COc1ccccc1Oc1cc2c(=O)c(NC=O)coc2cc1NS(C)(=O)=O`, for which the melting point is 226 to 227 °C.

The molecule `Cc1c(-c2ccccc2)c(N2CC[C@H](N(C)C)C2)c2oc(C(C)(C)F)nc2c1C#N` had a melting point of 130 to 132 °C.

`CCOC(=O)C(=O)Nc1cccnc1`: the melting point was in the range of 98 to 100 °C.

The molecule `CCCC(=NOCC)C1=C(O)CC(c2c(C)c(C)c(C)c3cc(C(C)=O)oc23)CC1=O` (configuration not stated) had a melting point of 154 °C.

With `CCOC(=O)c1c(Cl)nn(-c2c(Cl)cc(C(F)(F)F)cc2Cl)c1N`, the melting point was 143 to 146 °C.

The molecule `Cc1ccc(N(C)S(=O)(=O)c2cccs2)c2[nH]c(-c3nccs3)cc12` gave a melting point of 159 to 160 °C.

In turn, `Brc1ccnc2cc3c(cc12)OCO3` displayed a melting point of 147 to 149 °C.

Regarding `COc1cccc(C2(CCC(=O)O)NC(=O)NC2=O)c1` (configuration not stated), the melting point turned out to be 138 °C.

On to `C=CC1=CC=C(OC)C(OC)([N+](=O)[O-])C1` (configuration not stated), for which the melting point is 140 to 141 °C.

`CC(C)C[C@H](NC(=O)COc1ccc(Cl)cc1)C(=O)N[C@@H](Cc1ccccc1)C(=O)CSCc1ccco1` registered a melting point of 116 to 117 °C.

The molecule `COc1cccc2c1cc(C=O)n2Cc1ccccc1` showed a melting point of 130 to 131 °C.

Turning to `CCOC(=O)c1ccc(-c2ccc(OC)c(Br)c2)cc1`, the melting point was in the range of 114 to 115 °C.

The molecule `COc1ccc(CCNC=C2C(=O)Nc3cc(OC)c(OC)cc32)cc1OC` showed a melting point of 164 to 166 °C.

Molecule `CCCCCCCCCCCCn1sncc1=O` registered a melting point of 68 to 70 °C.

In turn, `CCCC1CCC2C3CCc4cc(O)ccc4C3CCC12C` (configuration not stated) came in with a melting point of 130 to 131 °C.

The molecule `O=S(=O)(Nc1ccc(C(F)(F)F)cc1Cl)c1cc(C(F)(F)F)ccc1Cl` displayed a melting point of 122 to 123 °C.

The molecule `COc1ccc2c(c1)c(-c1ccccc1)cc(=O)n2Cc1c(Cl)cncc1Cl` yielded a melting point of 191 to 192 °C.

Regarding `Cn1c(=O)n(Cc2ccc(Cl)cc2Cl)c(=O)c2ccc(C(=O)O)cc21`, the melting point was 308 to 310 °C.

As to `Cc1cccc(N2CC(=O)NC(=O)N2)c1`, the melting point lay in the range of 245 to 247 °C.

For `CCCCCCN1CC[C@H](NC(=O)c2cc(Cl)c(N)c3c2OCC3)[C@H](O)C1` (relative stereo), the melting point was 130 °C.

On to `CC1(C)N(CC(N)=O)C(=O)CN1C(=O)CN1CCCC1=O`, for which the melting point lay within 225 to 227 °C.

In turn, `O=C1N=c2cc(O)c(O)cc2=NC1=O` displayed a melting point above 350 °C.

`C=CCN(CC=C)c1nc(N)n2oc(=O)nc2n1` had a melting point of 211 to 213 °C.

Molecule `COc1ccc(S(=O)(=O)Cl)cc1N1CCN(C(=O)C(F)(F)F)CC1` came in with a melting point of 125 to 127 °C.

`Cn1c(C(F)(F)F)nn(-c2cc(F)c(C#N)cc2Cl)c1=O` came in with a melting point of 105 °C.

The molecule `CCc1nc2c(cnn2CC)c(NC2CCOCC2)c1CNC(=O)c1cccc(C(=O)NCc2ccc(Cl)c(-c3cccc(CN4CCCNCC4)c3)c2)c1` displayed a melting point of 116 to 119 °C.

For `Cn1c(Oc2ccc(N=C=S)cc2)nc2ccccc21`, the melting point lay within 59 to 61 °C.

As to `CCc1nc2c(C)cc(C)nc2n1Cc1ccc(-c2ccccc2S(=O)(=O)Nc2onc(C)c2C)c(CN2CCC(C)(C)C2=O)c1`, the melting point lay within 95 to 104 °C.

For `CCOC(=O)CCN(C)CC(C(=O)OC)c1cc(OC)c(CC)c(OC)c1` (configuration not stated), the melting point lay within 74 to 75 °C.

Molecule `O=C(c1cc(O)c(O)c(O)c1)c1csc(-c2ccccc2)n1` came in with a melting point of 175 to 176 °C.

The molecule `CCCCCN1C(=O)C(CO)(c2cc3c(cc2O)OCO3)c2ccccc21` (configuration not stated) yielded a melting point of 125 to 127 °C.

Molecule `CCCCNC(=O)CCC(=O)O` came in with a melting point of 93.5 to 94.5 °C.

Consider `COc1cccc(C=CC(=O)C2C(=O)OC(=O)C(C(C)=O)=C2O)c1OC` (configuration not stated), for which the melting point fell in the range of 175 to 176 °C.

Consider `CN(C)Cc1ccc(CSCCNC(=O)NCCN(C)CCN(Cc2ccc(F)cc2)c2ccccn2)o1`, for which the melting point came out at 90 °C.

Consider `Cc1cccc(C)c1N(CC(C)N)S(C)(=O)=O` (configuration not stated), for which the melting point lay in the range of 106 to 109 °C.

Take `O=C(O)CCCOc1ccc2nc3[nH]c(=O)[nH]c3cc2c1`: the melting point is above 320 °C.

As to `O=C(Nc1ccccc1)N1CCc2[nH]c3c(cnc4cc(Cl)ccc43)c2C1`, the melting point is above 260 °C.

The molecule `CCCC(=O)c1cnc2c(OC)cccc2c1Nc1ccc(O)cc1C` had a melting point of 252 to 253 °C.

Turning to `CC(C)(C)N(O)CC(O)c1cc(F)c(N)c(Br)c1` (configuration not stated), the melting point was 122 to 125 °C.

Molecule `COc1ccc(C=CC(=O)c2ccc(OC)cc2O)cc1` had a melting point of 108 °C.

`COC(=O)c1coc(-c2ccc(NS(=O)(=O)c3sc4ccc(F)cc4c3C)c(S(C)(=O)=O)c2)n1`: the melting point is 290 to 292 °C.

Consider `CC(C)(F)C1COCc2nc3c(N)nc4cc(O)ccc4c3n21` (configuration not stated), for which the melting point lay in the range of 219 to 221 °C.

Consider `Cc1cc(C)nc(NC(=O)Cc2ccsc2Br)c1`, for which the melting point came out at 72 °C.

Regarding `CC(C)c1cc(C(C)C)c2nc[nH]c(=O)c2c1`, the melting point is 164 to 165 °C.

In turn, `O=C1C2=C(CCCC2)C(=O)N1c1cc([N+](=O)[O-])c(Cl)cc1F` gave a melting point of 152 to 155 °C.

`COC(=O)C(CSC(=O)c1ccccc1)NC(=O)C(=O)NC(CSC(=O)c1ccccc1)C(=O)OC` (configuration not stated) yielded a melting point of 185 to 186 °C.

With `O=C1[C@H](CC[C@H](O)c2ccc(F)cc2)[C@@H](c2ccc(OS(=O)(=O)C(F)(F)F)cc2)N1c1ccc(F)cc1`, the melting point is 122 °C.

`Cn1c(=O)c(-c2c(Cl)cccc2Cl)cc2cnc(S(C)(=O)=O)nc21` displayed a melting point above 290 °C.

Consider `CCCOc1ccc(CC(=O)NCCc2ccc(OCC)c(OCC)c2)cc1OCCC`, for which the melting point is 99 °C.

These data come from a melting point compilation (Tetko et al.; mined from patent text by program, amines drawn as free bases though some values may be those of a salt).
